Tests used:
[1] = Ames test (mutagenic power); format: cell-based
Description: The tests carried out to measure the toxicity of the initiators are the Ames test and the LLNA sensitization test. The Ames test makes it possible to measure the mutagenic power of the initiator and the LLNA sensitization test makes it possible to detect the sensitizing power of the initiator. The cytotoxicity of the initiators can also be detected in this latter test (see examples). The following toxicology tests were carried out: Ames test: this Ames test makes it possible to measure the mutagenic power of the product Table I below indicates the results obtained for the various photoinitiators prepared above.

[2] = LLNA sensitization test; format: in vivo; details: cytotoxicity can also be detected
Description: The tests carried out to measure the toxicity of the initiators are the Ames test and the LLNA sensitization test. The Ames test makes it possible to measure the mutagenic power of the initiator and the LLNA sensitization test makes it possible to detect the sensitizing power of the initiator. The cytotoxicity of the initiators can also be detected in this latter test (see examples).
The following toxicology tests were carried out:
LLNA sensitization test: this test makes it possible to detect the sensitizing power of the product. The cytotoxicity of the products can also be detected in the course of the test.
Table I below indicates the results obtained for the various photoinitiators prepared above.

[3] = Reactivity under UV irradiation of the photoinitiator; details: compared with the other toxic photo-initiators
Text: The crosslinkable compositions comprise the non-toxic initiator prepared in Example 4.

| Compound | Ames [1] | LLNA sensit. [2] | reactivity under UV irradiation [3] |
| --- | --- | --- | --- |
| Cc1ccc([I+]c2ccc(C)cc2)cc1 [Example 1, ditolyliodonium chloride] | cytotoxic | cytotoxic | – |
| CC(C)c1ccc([I+]c2ccc(C(C)C)cc2)cc1 [Example 10] | negative | positive | – |
| COc1ccc([I+]c2ccc(OC)cc2)cc1 [Example 11] | cytotoxic | cytotoxic | – |
| Cc1ccc([I+]c2ccc(C)cc2)cc1 [Example 2] | positive | positive | – |
| Cc1ccc([I+]c2ccc(Oc3ccccc3)cc2)cc1 [Example 9] | cytotoxic | negative | – |
| Cc1ccc([I+]c2ccc(C(C)C)cc2)cc1 [Example 4] | – | – | comparable |
| Cc1ccc([I+]c2ccc(C(C)C)cc2)cc1 [Example 3, cumyltolyliodonium chloride] | negative | negative | – |
| CCOc1ccc([I+]c2ccc(C)cc2)cc1 [Example 8] | positive and cytotoxic | positive | – |
